How the values were obtained:
[1] = biological target: T1, N-arachidonyl glycine receptor (Homo sapiens) (UniProt Q14330); experiment: Agonist activity at human GPR18 expressed in CHO cells assessed as induction of beta-arrestin recruitment by beta-galactosidase enzyme fragment complementation method relative to delta9-THC; format: cell-based; parameters: concentration or dose not given beside the values
T1 sequence (whole entry): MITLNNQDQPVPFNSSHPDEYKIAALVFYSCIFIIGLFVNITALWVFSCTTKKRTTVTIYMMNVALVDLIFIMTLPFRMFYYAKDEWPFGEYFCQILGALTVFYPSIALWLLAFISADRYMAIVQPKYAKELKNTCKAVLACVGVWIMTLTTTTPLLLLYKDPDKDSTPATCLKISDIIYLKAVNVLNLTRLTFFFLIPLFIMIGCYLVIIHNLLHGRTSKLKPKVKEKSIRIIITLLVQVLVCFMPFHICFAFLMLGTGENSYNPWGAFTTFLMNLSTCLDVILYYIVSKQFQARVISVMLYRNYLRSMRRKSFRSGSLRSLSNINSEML

[2] = biological target: T2, Cannabinoid receptor 2 (Homo sapiens, UniProt P34972); experiment: Displacement of [3H]CP55,940 from human recombinant CB2 receptor expressed in HEK293 cells at 10 uM; format: cell-based
[3] = biological target: Cannabinoid receptor 1 (Rattus norvegicus, UniProt P20272); experiment: Displacement of [3H]CP55,940 from CB1 receptor in rat brain cortical membranes; format: cell membranes
[4] = biological target: T3, Cannabinoid receptor 1 (Homo sapiens, UniProt P21554); experiment: Displacement of [3H]CP55,940 from human recombinant CB1 receptor expressed in CHO-K1 cells at 10 uM; format: cell-based
[5] = biological target: T4, G-protein coupled receptor 55 (Homo sapiens, UniProt Q9Y2T6); experiment: Agonist activity at human GPR55 expressed in CHO cells assessed as induction of LPI-induced beta-arrestin recruitment by beta-galactosidase enzyme fragment complementation method relative to LPI; format: cell-based; parameters: concentration or dose not given beside the values
[6] = biological target: T5, N-arachidonyl glycine receptor (Homo sapiens, UniProt Q14330); experiment: Antagonist activity against human GPR18 expressed in CHO cells assessed as reduction in delta9-THC-induced beta-arrestin recruitment by beta-galactosidase enzyme fragment complementation method; format: cell-based
T5 sequence (Q14330 whole entry): T1 sequence (whole entry)

[7] = biological target: T4, G-protein coupled receptor 55; experiment: Antagonist activity against human GPR55 expressed in CHO cells assessed as reduction in LPI-induced beta-arrestin recruitment by beta-galactosidase enzyme fragment complementation method; format: cell-based
[8] = biological target: Cannabinoid receptor 1 (Rattus norvegicus) (UniProt P20272); experiment: Displacement of [3H]CP55,940 from CB1 receptor in rat brain cortical membranes at 10 uM; format: cell membranes
[9] = biological target: T2, Cannabinoid receptor 2; experiment: Displacement of [3H]CP55,940 from human recombinant CB2 receptor expressed in HEK293 cells; format: cell-based
[10] = biological target: T4, G-protein coupled receptor 55; experiment: Antagonist activity against human GPR55 expressed in CHO cells assessed as reduction in LPI-induced beta-arrestin recruitment at 10 uM by beta-galactosidase enzyme fragment complementation method; format: cell-based
[11] = biological target: T3, Cannabinoid receptor 1; experiment: Displacement of [3H]CP55,940 from human recombinant CB1 receptor expressed in CHO-K1 cells; format: cell-based
[12] = biological target: T1, N-arachidonyl glycine receptor (Homo sapiens); experiment: Antagonist activity against human GPR18 expressed in CHO cells assessed as reduction in delta9-THC-induced beta-arrestin recruitment at 10 uM by beta-galactosidase enzyme fragment complementation method; format: cell-based

T4 sequence (Q9Y2T6 whole entry, the tested form may be a part): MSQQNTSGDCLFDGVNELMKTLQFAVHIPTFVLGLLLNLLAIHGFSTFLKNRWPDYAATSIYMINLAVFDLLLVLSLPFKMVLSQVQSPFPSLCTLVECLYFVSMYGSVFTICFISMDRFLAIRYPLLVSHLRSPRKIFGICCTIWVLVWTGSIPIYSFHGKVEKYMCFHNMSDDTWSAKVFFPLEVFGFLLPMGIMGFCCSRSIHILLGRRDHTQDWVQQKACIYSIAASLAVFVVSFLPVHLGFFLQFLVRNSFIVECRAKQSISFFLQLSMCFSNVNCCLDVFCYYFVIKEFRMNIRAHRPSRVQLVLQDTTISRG
T2 sequence (P34972 whole entry): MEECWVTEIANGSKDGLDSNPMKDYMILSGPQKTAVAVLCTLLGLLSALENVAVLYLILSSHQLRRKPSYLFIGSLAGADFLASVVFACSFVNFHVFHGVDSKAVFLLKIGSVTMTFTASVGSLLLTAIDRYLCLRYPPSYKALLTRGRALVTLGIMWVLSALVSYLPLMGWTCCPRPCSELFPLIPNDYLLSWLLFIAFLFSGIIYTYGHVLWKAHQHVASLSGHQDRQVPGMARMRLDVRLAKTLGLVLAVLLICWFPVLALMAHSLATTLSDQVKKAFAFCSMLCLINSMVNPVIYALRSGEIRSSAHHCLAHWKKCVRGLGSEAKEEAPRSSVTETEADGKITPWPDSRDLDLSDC
T3 sequence (P21554 whole entry, the tested form may be a part): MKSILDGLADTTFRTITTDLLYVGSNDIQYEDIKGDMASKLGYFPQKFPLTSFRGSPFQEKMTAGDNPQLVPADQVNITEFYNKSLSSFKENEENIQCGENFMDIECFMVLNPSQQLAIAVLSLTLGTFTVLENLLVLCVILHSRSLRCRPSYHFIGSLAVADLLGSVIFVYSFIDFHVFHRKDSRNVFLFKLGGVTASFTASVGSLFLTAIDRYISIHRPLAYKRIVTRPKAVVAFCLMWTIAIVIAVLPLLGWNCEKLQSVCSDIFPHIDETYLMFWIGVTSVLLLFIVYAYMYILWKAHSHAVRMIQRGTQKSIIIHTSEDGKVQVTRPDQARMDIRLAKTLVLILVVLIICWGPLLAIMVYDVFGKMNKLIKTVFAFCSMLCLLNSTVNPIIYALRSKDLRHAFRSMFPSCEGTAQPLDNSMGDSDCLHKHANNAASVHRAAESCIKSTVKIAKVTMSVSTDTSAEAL
Sequence of Cannabinoid receptor 1 (Rattus norvegicus, UniProt P20272) (P20272 whole entry): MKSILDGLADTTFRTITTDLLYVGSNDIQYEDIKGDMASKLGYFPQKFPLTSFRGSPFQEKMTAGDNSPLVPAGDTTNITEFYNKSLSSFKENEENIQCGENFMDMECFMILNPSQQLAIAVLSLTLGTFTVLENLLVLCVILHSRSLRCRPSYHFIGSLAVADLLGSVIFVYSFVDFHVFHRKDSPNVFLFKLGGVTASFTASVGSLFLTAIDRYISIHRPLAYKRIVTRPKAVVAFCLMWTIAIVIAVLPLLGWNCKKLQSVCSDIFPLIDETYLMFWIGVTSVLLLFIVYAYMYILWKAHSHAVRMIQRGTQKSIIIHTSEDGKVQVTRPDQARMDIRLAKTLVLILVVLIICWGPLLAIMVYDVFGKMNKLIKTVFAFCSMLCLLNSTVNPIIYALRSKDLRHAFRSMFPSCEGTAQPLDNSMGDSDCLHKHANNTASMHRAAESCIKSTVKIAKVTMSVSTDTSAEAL
Sequence of Cannabinoid receptor 1 (Rattus norvegicus) (P20272 whole entry): as above

| Structure (SMILES) | Activity [1] | inhibition [2] | Ki [3] | inhibition [4] | Activity [5] | IC50 [6] | IC50 [7] | inhibition [8] | Ki [9] | inhibition [10] | Ki [11] | inhibition [12] |
| --- | --- | --- | --- | --- | --- | --- | --- | --- | --- | --- | --- | --- |
| O=C(Oc1cccc(/C=C2\N=C3SCCCN3C2=O)c1)c1ccc(Cl)cc1 | 0% | 0% | > 10 µM | 12% | 31% | 14.3 µM | > 10 µM | 24% | > 10 µM | 16% | > 10 µM |  |
| CCOC(=O)C1CN2C(=NC(=O)C2(c2ccccc2)c2ccccc2)S1 (stereo unspecified) | 7% | -5% | > 10 µM | 26% | 58% | > 10 µM | > 10 µM | 0% | > 10 µM | 41% | > 10 µM | 0% |
| O=C1/C(=C/c2ccc(-c3ccccc3)cc2)N=C2SCCCCN12 | 6% |  | > 10 µM | -5% | 30% | > 10 µM | > 10 µM | 0% | 5.43 µM | 0% | > 10 µM | 37% |
| O=C1/C(=C/c2ccc(Cl)cc2)N=C2SCCCN12 | 13% | 23% | > 10 µM | 25% | 0% | > 10 µM | > 10 µM | 15% | > 10 µM | 35% | > 10 µM | 18% |
| COc1ccccc1/C=C1\N=C2SCCCN2C1=O | 0% | 27% | > 10 µM | 4% | 12% | > 10 µM | > 10 µM | 4% | > 10 µM | 33% | > 10 µM | 0% |
| COc1cccc(/C=C2\N=C3SCCCN3C2=O)c1OC | 10% | 15% |  | 18% | 0% | > 10 µM | 16.4 µM |  | > 10 µM |  | > 10 µM | 10% |
| O=C1N2CCSC2=NC1(c1ccccc1)c1ccccc1 | 12% | 3% | > 10 µM |  | 50% | > 10 µM | > 10 µM | 15% | > 10 µM | 39% | 21.1 µM | 12% |
| O=C1/C(=C/c2cccc(OCc3ccccc3Cl)c2)N=C2SCCCN12 | 8% | 9% |  | 0% | 10% | 1.65 µM | ≥ 10 µM |  | > 10 µM | 45% | > 10 µM |  |
| O=C1N=C2SCCCN2/C1=C\C=C\c1ccccc1 | 9% | 19% | > 10 µM | 26% | 59% | > 10 µM | > 10 µM |  | > 10 µM | 0% | > 10 µM | 2% |
| CN(C)c1ccc(/C=C2\N=C3SCCCN3C2=O)cc1 | 17% |  | > 10 µM | 29% | 20% | > 10 µM | > 10 µM | 6% | 16.6 µM | 13% | > 10 µM | 13% |
| COc1ccc(/C=C2\N=C3SCCCN3C2=O)cc1OC | 0% | 18% | > 10 µM | 7% | 6% | > 10 µM | > 10 µM | 3% | > 10 µM | 12% | > 10 µM | 2% |
| CCCCC/C=C\C/C=C\C/C=C\C/C=C\CCCC(=O)NCC(=O)O [ARACHIDONOYL GLYCINE] |  | 36% |  | 43% |  | > 10 µM | > 10 µM |  | > 10 µM | 6% | > 10 µM | 0% |
| O=C1/C(=C/c2c(Cl)cccc2Cl)N=C2SCCCN12 | 12% | 4% |  | 14% | 15% | > 10 µM | > 10 µM |  | > 10 µM | 0% | > 10 µM | 0% |
| O=C1/C(=C/c2ccc(Cl)cc2Cl)N=C2SCCCN12 | 0% | 24% |  | 8% | 0% | > 10 µM | 6.76 µM |  | > 10 µM |  | > 10 µM | 14% |
| Cc1ccc(C(=O)Oc2cccc(/C=C3\N=C4SCCCCN4C3=O)c2)cc1 | 0% |  | > 10 µM | 35% | 25% | 6.45 µM | > 10 µM | 4% | 2.58 µM | 32% | > 10 µM |  |
| C/C(=C1/N=C2SCCCCN2C1=O)c1ccccc1 | 14% | 17% | > 10 µM | 10% | 1% | > 10 µM | > 10 µM | 3% | > 10 µM | 25% | > 10 µM | 4% |
| O=C1/C(=C/c2ccc(Br)cc2)N=C2SCCCN12 | 0% | 8% | > 10 µM | 29% | 26% | > 10 µM | > 10 µM | 21% | > 10 µM | 16% | > 10 µM | 13% |
| O=C1/C(=C/C=C/c2ccccc2)N=C2SCCCN12 | 7% | 37% | > 10 µM | 16% | 29% | > 10 µM | > 10 µM | 18% | > 10 µM | 27% | > 10 µM | 0% |
| O=C1N=C2SCCN2C1(c1ccccc1)c1ccccc1 | 21% | 6% | > 10 µM | 30% | 50% | > 10 µM | > 10 µM | 13% | > 10 µM | 31% | > 10 µM | 0% |
| O=C1N=C2SCCCN2C1(c1ccccc1)c1ccccc1 | 11% | 9% | > 10 µM | 13% | 53% | > 10 µM | > 10 µM | 4% | > 10 µM | 2% | > 10 µM | 0% |
| CC(C)c1ccc(/C=C2\N=C3SCCCN3C2=O)cc1 | 0% | 17% | > 10 µM | 12% | 13% | > 10 µM | > 10 µM | 6% | > 10 µM | 38% | > 10 µM | 4% |
| COc1ccc(/C=C2\N=C3SCCCN3C2=O)cc1 | 0% | 6% | > 10 µM | 39% | 37% | > 10 µM | > 10 µM | 5% | > 10 µM | 16% | > 10 µM | 10% |
| CCOC(=O)COc1cccc(/C=C2\N=C3SCCCCN3C2=O)c1 | 19% | 39% | > 10 µM |  | 0% | > 10 µM | > 10 µM | 27% | > 10 µM | 4% | 4.78 µM | 22% |
| O=C1/C(=C/c2cccc(OCc3ccc(Cl)c(Cl)c3)c2)N=C2SCCCN12 | 0% | 0% | > 10 µM | 15% | 4% | 6.16 µM | 11.8 µM |  | > 10 µM |  | > 10 µM |  |
| O=C1/C(=C/c2ccccc2F)N=C2SCCCN12 | 6% | 0% |  | 13% | 0% | > 10 µM | 5.56 µM |  | > 10 µM |  | > 10 µM | 17% |
